Test results: patent US4612366A, “Cyclic hexapeptide somatostatin analogs” (Merck & Co., Inc., priority 1985, dated 1986)

Tests used:
portal vein glucagon = test: Decrease of portal vein glucagon levels in anesthetized rats, compared to somatostatin; format: in vivo, rat; details: multiples or fractions of the effect of somatostatin (= 1); urethane-anesthetized male Sprague-Dawley rats, external jugular vein, portal vein blood after 5 minutes
Method: (§1) Analogs of somatostatin were compared to somatostatin in their ability to decrease the levels of portal vein glucagon and insulin in anesthetized rats. Male Sprague-Dawley rats (Charles River CD) weighing 160-200 g were anestetized with urethane (150 mg/100 g of body weight; Aldrich). Saline or peptides were administered via the external jugular vein. After 5 minutes, the portal vein was exposed, and blood was collected via syringe containing 3 mg of EDTA and placed in chilled tubes containing 100 μl of Trasylol (FBA Pharmaceuticals) for subsequent hormone analysis. Plasma levels of glucagon were determined by the method of Faloona and Unger, Methods of Hormone Radioimmunossay, Jaffe and Behrman (Eds), Academic Press, New York, Vol. II, pp. 257-527 (1976), utilizing glucagon antisera 30K obtained from R. Unger (Dallas, TX). Plasma levels of insulin were determined by a modification of the procedure of Herbert et al., J. Clin. Endocrinol. Metab., 25, 1375-1384 (1965).
(§2) The test results for some of the compounds of this invention are recorded below with the results for somatostatin listed first and given the arbitrary value of 1. The results for the instant compounds are given as multiples or fractions of the effect of somatostatin. The first of the instant compounds listed is the compound prepared in Example 1-5. […]

portal vein insulin = test: Decrease of portal vein insulin levels in anesthetized rats, compared to somatostatin; format: in vivo, rat; details: multiples or fractions of the effect of somatostatin (= 1); urethane-anesthetized male Sprague-Dawley rats, external jugular vein, portal vein blood after 5 minutes
Method: as §1, §2

SMILES: C[C@H](N)C(=O)NCC(=O)N[C@H]1CSSC[C@@H](C(=O)O)NC(=O)[C@H](CO)NC(=O)[C@H]([C@@H](C)O)NC(=O)[C@H](Cc2ccccc2)NC(=O)[C@H]([C@@H](C)O)NC(=O)[C@H](CCCCN)NC(=O)[C@H](Cc2c[nH]c3ccccc23)NC(=O)[C@H](Cc2ccccc2)NC(=O)[C@H](Cc2ccccc2)NC(=O)[C@H](CC(N)=O)NC(=O)[C@H](CCCCN)NC1=O [Somatostatin]
- Glucagon Inhibition (portal vein glucagon): 1
- Insulin Release Inhibition (portal vein insulin): 1
